{
  "source": "the supplement of paper PMC11208160",
  "assay": "recombinant barcode read abundance after kanamycin selection (control-corrected) (log10(CPM+1)); higher = more efficient recombination; sequences stand for … in AGTGCAGAGAAAATCGGCCAGTTTTCTCTGCCTGCAGTCCGCATGCCGT…AGATTTATGCAGCGGACTGCCTTTCTCCCAAAGTGATAAACCGGACAGTATCATGGACCGGTTTTCCCGGTAATCCGTATTTGCAAGGTTGGTTTCACT; site = the 11-nt target",
  "experimental": "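Pooled E. coli target-specificity screen for the IS621 bridge recombinase. Each library plasmid pairs an 11-nt target (CT core) with a bridge RNA whose target-binding loop (9-nt LTG + 4-nt RTG) is reprogrammed; the rest of the 177-nt WT IS621 bridge RNA scaffold is fixed. The plasmid is co-electroporated with a WT donor plasmid; recombinase is induced with 0.1 mM IPTG and recombinants are selected on kanamycin. Recombinant barcodes are sequenced, converted to CPM, averaged over two biological replicates and corrected by the unselected control CPM. Molecule = full bridge RNA written as DNA: LTG = specificity nt 1-9, RTG = reverse complement of specificity nt 8-11, in the WT scaffold.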",
  "data": [
    {"sequence": "ACTTGAACTTGGGTTCTAACCTGTTGCTT (site ACTTTAGCTAA)", "values": [
      {"measurement": "recombinant barcode read abundance (log10)", "value": 0.0785}
    ]},
    {"sequence": "ACTTGAGCTTGGGTTCTAACCTGTTGCAT (site ACTTGAGCTAT)", "values": [
      {"measurement": "recombinant barcode read abundance (log10)", "value": 1.36}
    ]},
    {"sequence": "ACTTGAGCTTGGGTTCTAACCTGTTGCAT (site TAGACTCCTTG)", "values": [
      {"measurement": "recombinant barcode read abundance (log10)", "value": 0.232}
    ]},
    {"sequence": "ACTTTAACTTGGGTTCTAACCTGTTGCTT (site ACTATAACTAA)", "values": [
      {"measurement": "recombinant barcode read abundance (log10)", "value": 0.185}
    ]},
    {"sequence": "ACTTTAACTTGGGTTCTAACCTGTTGCTT (site ACTCTAACTAA)", "values": [
      {"measurement": "recombinant barcode read abundance (log10)", "value": 0.229}
    ]},
    {"sequence": "ACTTTAACTTGGGTTCTAACCTGTTGCTT (site ACTGTAACTAA)", "values": [
      {"measurement": "recombinant barcode read abundance (log10)", "value": 0.0934}
    ]},
    {"sequence": "ACTTTAACTTGGGTTCTAACCTGTTGCTT (site ACTTTAACTAA)", "values": [
      {"measurement": "recombinant barcode read abundance (log10)", "value": 0.217}
    ]},
    {"sequence": "ACTTTAGCTTGGGTTCTAACCTGTTGCAG (site ACATTAGCTTT)", "values": [
      {"measurement": "recombinant barcode read abundance (log10)", "value": 0.056}
    ]},
    {"sequence": "ACTTTAGCTTGGGTTCTAACCTGTTGCAG (site ACTTTAGCTCT)", "values": [
      {"measurement": "recombinant barcode read abundance (log10)", "value": 0.694}
    ]},
    {"sequence": "ACTTTGCCTTGGGTTCTAACCTGTTGCCT (site ACATTGCCTAG)", "values": [
      {"measurement": "recombinant barcode read abundance (log10)", "value": 0.0554}
    ]},
    {"sequence": "ACTTTGCCTTGGGTTCTAACCTGTTGCCT (site ACCTTGCCTAG)", "values": [
      {"measurement": "recombinant barcode read abundance (log10)", "value": 0.0879}
    ]},
    {"sequence": "ACTTTGCCTTGGGTTCTAACCTGTTGCCT (site ACGTTGCCTAG)", "values": [
      {"measurement": "recombinant barcode read abundance (log10)", "value": 0.0319}
    ]},
    {"sequence": "ACTTTGCCTTGGGTTCTAACCTGTTGCCT (site ACTTTGCCTAG)", "values": [
      {"measurement": "recombinant barcode read abundance (log10)", "value": 0.953}
    ]},
    {"sequence": "AGAAAGTCTTGGGTTCTAACCTGTTGCGT (site AGAAAGTCTAC)", "values": [
      {"measurement": "recombinant barcode read abundance (log10)", "value": 2.36}
    ]},
    {"sequence": "AGAAAGTCTTGGGTTCTAACCTGTTGCGT (site AGAGAGTCTAG)", "values": [
      {"measurement": "recombinant barcode read abundance (log10)", "value": 0.363}
    ]},
    {"sequence": "AGAAATACTTGGGTTCTAACCTGTTGCCG (site AGAAATACTCG)", "values": [
      {"measurement": "recombinant barcode read abundance (log10)", "value": 1.07}
    ]},
    {"sequence": "AGAAATACTTGGGTTCTAACCTGTTGCCG (site GTCCTACCTTA)", "values": [
      {"measurement": "recombinant barcode read abundance (log10)", "value": 0.0574}
    ]},
    {"sequence": "AGAACAACTTGGGTTCTAACCTGTTGCCT (site AGAACAACTAG)", "values": [
      {"measurement": "recombinant barcode read abundance (log10)", "value": 0.388}
    ]},
    {"sequence": "AGAACAACTTGGGTTCTAACCTGTTGCCT (site AGCACAACTAG)", "values": [
      {"measurement": "recombinant barcode read abundance (log10)", "value": 0.035}
    ]},
    {"sequence": "AGAACAACTTGGGTTCTAACCTGTTGCCT (site AGGACAACTAG)", "values": [
      {"measurement": "recombinant barcode read abundance (log10)", "value": 0.456}
    ]},
    {"sequence": "AGAACAACTTGGGTTCTAACCTGTTGCCT (site AGTACAACTAG)", "values": [
      {"measurement": "recombinant barcode read abundance (log10)", "value": 0.102}
    ]},
    {"sequence": "AGAACTACTTGGGTTCTAACCTGTTGCCA (site AGAACTACTTG)", "values": [
      {"measurement": "recombinant barcode read abundance (log10)", "value": 0.0417}
    ]},
    {"sequence": "AGAACTACTTGGGTTCTAACCTGTTGCCA (site CTCGTGTCTAT)", "values": [
      {"measurement": "recombinant barcode read abundance (log10)", "value": 0.0514}
    ]},
    {"sequence": "AGAAGTACTTGGGTTCTAACCTGTTGCGG (site AGAAGTACTCC)", "values": [
      {"measurement": "recombinant barcode read abundance (log10)", "value": 1.86}
    ]},
    {"sequence": "AGAAGTACTTGGGTTCTAACCTGTTGCGG (site GTAAGTACTCC)", "values": [
      {"measurement": "recombinant barcode read abundance (log10)", "value": 0.0235}
    ]},
    {"sequence": "AGAATATCTTGGGTTCTAACCTGTTGCCT (site AGAATATCTAG)", "values": [
      {"measurement": "recombinant barcode read abundance (log10)", "value": 0.834}
    ]},
    {"sequence": "AGAATATCTTGGGTTCTAACCTGTTGCCT (site AGATTATCTAG)", "values": [
      {"measurement": "recombinant barcode read abundance (log10)", "value": 0.193}
    ]},
    {"sequence": "AGACATCCTTGGGTTCTAACCTGTTGCTT (site AGACATCCTAA)", "values": [
      {"measurement": "recombinant barcode read abundance (log10)", "value": 0.948}
    ]},
    {"sequence": "AGACATCCTTGGGTTCTAACCTGTTGCTT (site AGACCTCCTAA)", "values": [
      {"measurement": "recombinant barcode read abundance (log10)", "value": 0.0971}
    ]},
    {"sequence": "AGACATCCTTGGGTTCTAACCTGTTGCTT (site AGACGTCCTAA)", "values": [
      {"measurement": "recombinant barcode read abundance (log10)", "value": 0.0527}
    ]},
    {"sequence": "AGACATCCTTGGGTTCTAACCTGTTGCTT (site AGACTTCCTAA)", "values": [
      {"measurement": "recombinant barcode read abundance (log10)", "value": 0.195}
    ]},
    {"sequence": "AGACCACCTTGGGTTCTAACCTGTTGCCT (site AAACCACCTAG)", "values": [
      {"measurement": "recombinant barcode read abundance (log10)", "value": 0.383}
    ]},
    {"sequence": "AGACCACCTTGGGTTCTAACCTGTTGCCT (site ACACCACCTAG)", "values": [
      {"measurement": "recombinant barcode read abundance (log10)", "value": 0.234}
    ]},
    {"sequence": "AGACCACCTTGGGTTCTAACCTGTTGCCT (site AGACCACCTAG)", "values": [
      {"measurement": "recombinant barcode read abundance (log10)", "value": 1.82}
    ]},
    {"sequence": "AGACCACCTTGGGTTCTAACCTGTTGCCT (site ATACCACCTAG)", "values": [
      {"measurement": "recombinant barcode read abundance (log10)", "value": 0.847}
    ]},
    {"sequence": "AGACGGACTTGGGTTCTAACCTGTTGCCA (site AGACGGACTTG)", "values": [
      {"measurement": "recombinant barcode read abundance (log10)", "value": 1.68}
    ]},
    {"sequence": "AGACGGACTTGGGTTCTAACCTGTTGCCA (site CTTGCTCCTAT)", "values": [
      {"measurement": "recombinant barcode read abundance (log10)", "value": 0.145}
    ]},
    {"sequence": "AGACTAGCTTGGGTTCTAACCTGTTGCGT (site AGACTAGCTAC)", "values": [
      {"measurement": "recombinant barcode read abundance (log10)", "value": 2.51}
    ]},
    {"sequence": "AGACTAGCTTGGGTTCTAACCTGTTGCGT (site TTACTAGCTAC)", "values": [
      {"measurement": "recombinant barcode read abundance (log10)", "value": 0.255}
    ]},
    {"sequence": "AGACTCCCTTGGGTTCTAACCTGTTGCCT (site AGACTCCCTAG)", "values": [
      {"measurement": "recombinant barcode read abundance (log10)", "value": 1.22}
    ]},
    {"sequence": "AGACTCCCTTGGGTTCTAACCTGTTGCCT (site AGCCTCCCTAG)", "values": [
      {"measurement": "recombinant barcode read abundance (log10)", "value": 0.223}
    ]}
  ]
}
